Results from US20110033397A1, “Anti-Aging Compositions Comprising Menyanthes Trifoliata Leaf Extracts And Methods Of Use Thereof” (priority 2006, published 2011).
Like-named read-outs stand apart in the source and are kept apart here.

Legend:
Format in all cases: biochemical
[1] = Peroxynitrite scavenging (ABEL peroxynitrite antioxidant test kit with Pholasin); conditions: summary of Table 6
Description: Assay was performed with the ABEL® peroxynitrite antioxidant test kit with Pholasin®. Standards of different phenolic acids and flavonoids, identified in […] trifoliata extracts, were tested for their in vitro peroxynitrite scavenging activity. Assay was performed with the ABEL® peroxynitrite antioxidant test kit with Pholasin®.

MMP-2 = molecular target: T1, MMP-2 (Homo sapiens, UniProt P08253); test: In vitro specific inhibition of MMP-2 activity (Biomol assay kit); conditions: for IC50: selected standards, Table 4, read-out: inhibition expressed as IC50 against MMP-2 (converted); for in vitro MMP-2 inhibition activity, in words: summary of Tables 2 and 4
T1 construct: purchased Biomol
T1 sequence (P08253 110-446 limits assumed): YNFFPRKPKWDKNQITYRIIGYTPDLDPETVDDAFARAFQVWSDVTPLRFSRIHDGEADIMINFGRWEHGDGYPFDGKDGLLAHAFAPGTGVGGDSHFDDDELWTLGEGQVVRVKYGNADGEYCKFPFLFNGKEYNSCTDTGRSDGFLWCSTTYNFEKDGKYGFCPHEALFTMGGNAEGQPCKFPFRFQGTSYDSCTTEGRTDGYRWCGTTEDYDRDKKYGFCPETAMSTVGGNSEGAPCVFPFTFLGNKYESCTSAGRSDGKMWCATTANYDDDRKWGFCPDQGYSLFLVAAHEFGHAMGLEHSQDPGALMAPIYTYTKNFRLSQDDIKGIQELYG
Description: (§1) Several extracts and sub-fractions from the leaves of Menyanthes trifoliata were prepared by liquid-liquid partitioning and fractionation on a Sephadex LH20 gel filtration column (see example 1) and evaluated for specific anti-MMP activity. In vitro specific inhibition of MMP-2 and MMP-9 activity was estimated with assay kits from Biomol®. Recombinant human MMP-1 enzyme may be obtained from any commercially available source. […] Therefore, a lower value indicates a stronger MMP inhibition.
(§2) To further understand which agents may be contributing to the MMP-1, 2, 9 inhibition activity, standards of the different phenol acids, flavonoids and coumarins, identified in Menyanthes trifoliata extracts, were tested for their in vitro inhibition of MMPs-1, 2 and 9. In vitro specific inhibition of MMP-2 and MMP-9 activity is estimated with assay kits from Biomol®. Recombinant human MMP-1 enzyme is obtained from any commercially available source.

[2] = molecular target: T2, Recombinant human MMP-1 enzyme (Homo sapiens, UniProt P03956); test: In vitro inhibition of MMP-1 activity; conditions: for in vitro MMP-1 inhibition activity, in words: summary of Tables 2 and 4
T2 construct: purchased
T2 sequence (P03956 100-469): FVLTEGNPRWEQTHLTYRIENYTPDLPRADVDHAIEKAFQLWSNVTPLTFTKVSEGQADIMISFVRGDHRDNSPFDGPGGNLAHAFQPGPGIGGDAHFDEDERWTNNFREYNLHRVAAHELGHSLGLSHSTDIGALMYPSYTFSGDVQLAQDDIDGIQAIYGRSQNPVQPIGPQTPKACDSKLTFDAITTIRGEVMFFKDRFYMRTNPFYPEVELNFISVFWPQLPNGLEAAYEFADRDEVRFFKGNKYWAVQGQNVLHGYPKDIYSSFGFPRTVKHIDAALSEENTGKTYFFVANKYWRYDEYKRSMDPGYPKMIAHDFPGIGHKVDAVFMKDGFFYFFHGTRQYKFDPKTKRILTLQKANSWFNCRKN
Excerpt: In vitro specific inhibition of MMP-2 and MMP-9 activity was estimated with assay kits from Biomol®. Recombinant human MMP-1 enzyme may be obtained from any commercially available source. […] Therefore, a lower value indicates a stronger MMP inhibition.
In vitro specific inhibition of MMP-2 and MMP-9 activity is estimated with assay kits from Biomol®. Recombinant human MMP-1 enzyme is obtained from any commercially available source.

MMP-9 = molecular target: T3, MMP-9 (Homo sapiens, UniProt P14780); test: In vitro specific inhibition of MMP-9 activity (Biomol assay kit); conditions: for IC50: selected standards, Table 4, read-out: inhibition expressed as IC50 against MMP-9 (converted); for in vitro MMP-9 inhibition activity, in words: summary of Tables 2 and 4
T3 construct: purchased Biomol
T3 sequence (P14780 107-444 limits assumed): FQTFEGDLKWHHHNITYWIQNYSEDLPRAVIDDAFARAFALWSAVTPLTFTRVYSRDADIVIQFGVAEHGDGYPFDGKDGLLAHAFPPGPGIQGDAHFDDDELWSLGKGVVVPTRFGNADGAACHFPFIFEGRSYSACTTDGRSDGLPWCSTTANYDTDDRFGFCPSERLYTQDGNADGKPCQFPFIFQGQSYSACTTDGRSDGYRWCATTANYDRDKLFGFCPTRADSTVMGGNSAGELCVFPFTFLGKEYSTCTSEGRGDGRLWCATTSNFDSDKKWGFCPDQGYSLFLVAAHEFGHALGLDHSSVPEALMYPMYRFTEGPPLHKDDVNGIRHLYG
Description: as §1, §2

[3] = selected standards, Table 4, read-out: inhibition expressed as IC50 against MMP-1 (converted)

| SMILES | peroxynitrite scavenging activity, in words [1] | IC50 (MMP-2) | in vitro MMP-2 inhibition activity, in words (MMP-2) | IC50 [2, 3] | in vitro MMP-1 inhibition activity, in words [2] | IC50 (MMP-9) | in vitro MMP-9 inhibition activity, in words (MMP-9) | IC50 [2] |
| --- | --- | --- | --- | --- | --- | --- | --- | --- |
| O=C(O)c1ccc(O)c(O)c1 [Protocatechuic acid] | strong |  |  |  |  |  |  |  |
| COc1cc2ccc(=O)oc2cc1O [Scopoletin] |  | 93.7 µM | strong | 78.1 µM | strong | 130 µM | strong |  |
| O=C(O)c1ccc(O)cc1 [p-hydroxy-benzoic acid] |  |  |  |  | not |  | not |  |
| O=c1c(O[C@@H]2O[C@H](CO)[C@@H](O)[C@H](O)[C@H]2O)c(-c2ccc(O)c(O)c2)oc2cc(O)cc(O)c12 [Iso-quercitrin] |  | 21.5 µM |  |  |  | 198 µM |  | 49.5 µM |
| COc1cc2ccc(=O)oc2cc1OC [Scoparone] |  | 87.3 µM | strong | 72.7 µM | strong | 48.5 µM | strong |  |
| O=c1c(O)c(-c2ccc(O)c(O)c2)oc2cc(O)cc(O)c12 [Quercetin] | strong | 33.1 µM | strong |  | strong | 62.9 µM | strong |  |
| COc1cc(/C=C/C(=O)O)ccc1O [ferulic acid] | strong | 113 µM | strong | 144 µM | strong | 103 µM | strong |  |
| C[C@@H]1O[C@@H](OC[C@H]2O[C@@H](Oc3c(-c4ccc(O)c(O)c4)oc4cc(O)cc(O)c4c3=O)[C@H](O)[C@@H](O)[C@@H]2O)[C@H](O)[C@H](O)[C@H]1O [Rutin] |  | 45.9 µM |  | 65.5 µM |  | 70.4 µM |  |  |
